Data: patent publication US20090324513A1, “Process for Producing Chlorinated Sucrose” (Pharmed Medicare Private Limited, priority 2004, published 2009)
Values joined by “and” are separate entries in the source; they are usually repeats but may differ in a detail not shown here. Equal entries are not always repeated. Blank lines part the entries; values can stand above or below the compound they belong to.

Key:
[1] = Particle size evaluated in Microtrac-X100 equipment; format: physicochemical; details: for Particle size: other batches, ethyl acetate crystallization
Procedure: The particle size was evaluated in Microtrac—X100 equipment.

[2] = Solubility test of product batch; format: physicochemical; details: result against specification: Soluble in ethanol and water. Slightly soluble in ethyl acetate

Particle size ([1]; 90% of particles): 90% ≦ 9.165 microns
Structure (SMILES): OC[C@H]1O[C@H](O[C@]2(CCl)O[C@H](CCl)[C@@H](O)[C@@H]2O)[C@H](O)[C@@H](O)[C@H]1Cl [PP 03]

Particle size ([1]; 90% of particles): 90% ≦ 9.183 microns
Structure (SMILES): OC[C@H]1O[C@H](O[C@]2(CCl)O[C@H](CCl)[C@@H](O)[C@@H]2O)[C@H](O)[C@@H](O)[C@H]1Cl [PRO 05]

Particle size ([1]; 90% of particles): 90% ≦ 9.125 microns
Structure (SMILES): OC[C@H]1O[C@H](O[C@]2(CCl)O[C@H](CCl)[C@@H](O)[C@@H]2O)[C@H](O)[C@@H](O)[C@H]1Cl [PP 02]

individual crystal particle size at percentage ([1]; 10% of particles): 0.956 microns | individual crystal particle size at percentage ([1]; 20% of particles): 1.541 microns | individual crystal particle size at percentage ([1]; 30% of particles): 2.093 microns | individual crystal particle size at percentage ([1]; 40% of particles): 2.605 microns | individual crystal particle size at percentage ([1]; 50% of particles): 3.274 microns | individual crystal particle size at percentage ([1]; 60% of particles): 4.236 microns | individual crystal particle size at percentage ([1]; 70% of particles): 5.311 microns | individual crystal particle size at percentage ([1]; 80% of particles): 6.615 microns | individual crystal particle size at percentage ([1]; 90% of particles, listed as crystallized product): below 9.185 microns and 9.185 microns | individual crystal particle size at percentage ([1]; 95% of particles): 11.51 microns | Solubility [2]: Complies
Structure (SMILES): OC[C@H]1O[C@@H](O[C@]2(CCl)O[C@H](CCl)[C@@H](O)[C@@H]2O)[C@H](O)[C@@H](O)[C@H]1Cl [conventional crystallization batch, 1′,6′-Dichloro-1′,6′-Dideoxy-â-D-Fructo-Furanosyl-4-Chloro-4-Deoxy-â-D-Galactopyranoside]

Particle size ([1]; 90% of particles): 90% ≦ 9.035 microns
Structure (SMILES): OC[C@H]1O[C@H](O[C@]2(CCl)O[C@H](CCl)[C@@H](O)[C@@H]2O)[C@H](O)[C@@H](O)[C@H]1Cl [PRO 01]
